What was measured:
Details in all cases: 1 µM; binder
PHKG1 = PHKG1 (Homo sapiens, UniProt Q16816)
FLT4 = FLT4 (Homo sapiens, UniProt P35916)
ABL1-phosphorylated = ABL1-phosphorylated (Homo sapiens, UniProt P00519)
MLK2 = MLK2 (Homo sapiens, UniProt Q02779)
FLT3(R834Q) = FLT3(R834Q) (Homo sapiens, UniProt P36888, R834Q)
ACVR1B = ACVR1B (Homo sapiens, UniProt P36896)
CLK3 = CLK3 (Homo sapiens, UniProt P49761)
HUNK = HUNK (Homo sapiens, UniProt P57058)
HASPIN = HASPIN (Homo sapiens, UniProt Q8TF76)
EPHA5 = EPHA5 (Homo sapiens, UniProt P54756)
PKAC-alpha = PKAC-alpha (Homo sapiens, UniProt P17612)
CAMK1 = CAMK1 (Homo sapiens, UniProt Q14012)
CSNK1G3 = CSNK1G3 (Homo sapiens, UniProt Q9Y6M4)
Sequence of CSNK1G3 (Q9Y6M4 whole entry): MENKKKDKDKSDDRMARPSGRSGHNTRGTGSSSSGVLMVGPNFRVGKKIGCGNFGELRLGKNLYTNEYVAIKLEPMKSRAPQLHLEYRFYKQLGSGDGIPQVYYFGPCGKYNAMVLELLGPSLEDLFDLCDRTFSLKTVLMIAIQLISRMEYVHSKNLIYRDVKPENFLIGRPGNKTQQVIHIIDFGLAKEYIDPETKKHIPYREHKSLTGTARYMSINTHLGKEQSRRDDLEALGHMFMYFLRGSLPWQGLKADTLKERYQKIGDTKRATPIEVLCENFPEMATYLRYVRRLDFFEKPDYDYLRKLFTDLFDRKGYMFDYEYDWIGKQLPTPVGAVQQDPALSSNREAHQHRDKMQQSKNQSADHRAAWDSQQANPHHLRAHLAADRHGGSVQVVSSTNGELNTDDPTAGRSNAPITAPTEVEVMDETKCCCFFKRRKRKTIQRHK

MKNK1 = MKNK1 (Homo sapiens, UniProt Q9BUB5)
Sequence of MKNK1 (Q9BUB5 whole entry): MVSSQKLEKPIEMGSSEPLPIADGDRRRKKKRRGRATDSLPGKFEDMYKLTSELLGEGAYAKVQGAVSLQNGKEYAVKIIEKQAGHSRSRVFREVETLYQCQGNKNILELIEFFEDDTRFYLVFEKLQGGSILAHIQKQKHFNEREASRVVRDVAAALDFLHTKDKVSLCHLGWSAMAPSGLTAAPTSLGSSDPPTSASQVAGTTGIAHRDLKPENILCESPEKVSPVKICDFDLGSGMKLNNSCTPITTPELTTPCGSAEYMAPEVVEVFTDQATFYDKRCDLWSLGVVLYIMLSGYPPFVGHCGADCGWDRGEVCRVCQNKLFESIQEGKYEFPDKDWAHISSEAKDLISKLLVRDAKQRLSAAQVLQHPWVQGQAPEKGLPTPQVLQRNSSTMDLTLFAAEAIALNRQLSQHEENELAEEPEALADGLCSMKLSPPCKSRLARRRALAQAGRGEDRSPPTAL

INSR = INSR (Homo sapiens, UniProt P06213)
KIT(V559D,V654A) = KIT(V559D,V654A) (Homo sapiens, UniProt P10721, V559D/V654A)
DAPK3 = DAPK3 (Homo sapiens, UniProt O43293)
Sequence of DAPK3 (O43293 whole entry): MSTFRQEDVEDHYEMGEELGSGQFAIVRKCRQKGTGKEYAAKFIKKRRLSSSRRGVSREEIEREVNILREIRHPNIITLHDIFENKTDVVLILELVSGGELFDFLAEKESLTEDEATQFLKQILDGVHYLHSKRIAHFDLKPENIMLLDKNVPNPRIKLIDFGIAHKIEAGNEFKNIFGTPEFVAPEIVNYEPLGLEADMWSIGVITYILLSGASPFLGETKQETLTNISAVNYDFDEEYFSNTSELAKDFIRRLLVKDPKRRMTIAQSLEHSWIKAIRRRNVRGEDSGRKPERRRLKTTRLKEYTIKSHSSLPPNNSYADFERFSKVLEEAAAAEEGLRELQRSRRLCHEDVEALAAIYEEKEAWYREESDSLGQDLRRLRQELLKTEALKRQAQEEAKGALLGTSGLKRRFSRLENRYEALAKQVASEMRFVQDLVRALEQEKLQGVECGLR

p38-gamma = p38-gamma (Homo sapiens, UniProt P53778)
p38-beta = p38-beta (Homo sapiens, UniProt Q15759)
ADCK4 = ADCK4 (Homo sapiens, UniProt Q96D53)
Sequence of ADCK4 (Q96D53 whole entry): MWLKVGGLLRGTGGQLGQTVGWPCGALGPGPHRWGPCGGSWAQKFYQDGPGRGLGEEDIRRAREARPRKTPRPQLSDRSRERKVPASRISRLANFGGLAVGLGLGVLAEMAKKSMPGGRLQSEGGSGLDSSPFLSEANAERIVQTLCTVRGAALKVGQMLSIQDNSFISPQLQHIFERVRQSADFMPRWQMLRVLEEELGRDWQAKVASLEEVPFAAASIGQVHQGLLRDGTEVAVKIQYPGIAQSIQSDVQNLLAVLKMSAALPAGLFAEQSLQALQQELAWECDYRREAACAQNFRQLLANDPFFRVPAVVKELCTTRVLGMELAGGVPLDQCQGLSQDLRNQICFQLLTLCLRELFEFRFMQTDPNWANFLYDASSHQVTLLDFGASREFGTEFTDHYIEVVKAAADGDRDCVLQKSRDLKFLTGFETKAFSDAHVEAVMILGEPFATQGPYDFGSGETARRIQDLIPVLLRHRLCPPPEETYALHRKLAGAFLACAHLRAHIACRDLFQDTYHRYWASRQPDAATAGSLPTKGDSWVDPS

MYO3B = MYO3B (Homo sapiens, UniProt Q8WXR4)
EPHA2 = EPHA2 (Homo sapiens, UniProt P29317)
VRK2 = VRK2 (Homo sapiens, UniProt Q86Y07)
Sequence of VRK2 (Q86Y07 whole entry): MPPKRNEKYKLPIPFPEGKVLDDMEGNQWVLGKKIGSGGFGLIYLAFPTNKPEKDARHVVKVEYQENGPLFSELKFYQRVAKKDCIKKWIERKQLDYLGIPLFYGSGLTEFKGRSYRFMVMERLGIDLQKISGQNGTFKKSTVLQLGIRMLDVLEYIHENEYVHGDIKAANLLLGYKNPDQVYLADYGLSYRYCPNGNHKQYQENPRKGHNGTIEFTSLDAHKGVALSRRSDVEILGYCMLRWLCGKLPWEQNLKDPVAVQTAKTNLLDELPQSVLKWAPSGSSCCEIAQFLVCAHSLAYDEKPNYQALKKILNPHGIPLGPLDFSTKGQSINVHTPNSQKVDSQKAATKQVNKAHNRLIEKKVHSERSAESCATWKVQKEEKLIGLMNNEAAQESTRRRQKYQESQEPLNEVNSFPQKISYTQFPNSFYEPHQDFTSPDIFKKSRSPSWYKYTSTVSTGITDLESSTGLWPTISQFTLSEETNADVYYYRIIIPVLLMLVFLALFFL

PIK3CA(Q546K) = PIK3CA(Q546K) (Homo sapiens, UniProt P42336, Q546K)
TYRO3 = TYRO3 (Homo sapiens, UniProt Q06418)
KIT(D816V) = KIT(D816V) (Homo sapiens, UniProt P10721, D816V)
EPHB2 = EPHB2 (Homo sapiens, UniProt P29323)
MET(M1250T) = MET(M1250T) (Homo sapiens, UniProt P08581, M1250T)
MRCKA = MRCKA (Homo sapiens, UniProt Q5VT25)
LZK = LZK (Homo sapiens, UniProt O43283)

Sequence of FLT4 (P35916 whole entry): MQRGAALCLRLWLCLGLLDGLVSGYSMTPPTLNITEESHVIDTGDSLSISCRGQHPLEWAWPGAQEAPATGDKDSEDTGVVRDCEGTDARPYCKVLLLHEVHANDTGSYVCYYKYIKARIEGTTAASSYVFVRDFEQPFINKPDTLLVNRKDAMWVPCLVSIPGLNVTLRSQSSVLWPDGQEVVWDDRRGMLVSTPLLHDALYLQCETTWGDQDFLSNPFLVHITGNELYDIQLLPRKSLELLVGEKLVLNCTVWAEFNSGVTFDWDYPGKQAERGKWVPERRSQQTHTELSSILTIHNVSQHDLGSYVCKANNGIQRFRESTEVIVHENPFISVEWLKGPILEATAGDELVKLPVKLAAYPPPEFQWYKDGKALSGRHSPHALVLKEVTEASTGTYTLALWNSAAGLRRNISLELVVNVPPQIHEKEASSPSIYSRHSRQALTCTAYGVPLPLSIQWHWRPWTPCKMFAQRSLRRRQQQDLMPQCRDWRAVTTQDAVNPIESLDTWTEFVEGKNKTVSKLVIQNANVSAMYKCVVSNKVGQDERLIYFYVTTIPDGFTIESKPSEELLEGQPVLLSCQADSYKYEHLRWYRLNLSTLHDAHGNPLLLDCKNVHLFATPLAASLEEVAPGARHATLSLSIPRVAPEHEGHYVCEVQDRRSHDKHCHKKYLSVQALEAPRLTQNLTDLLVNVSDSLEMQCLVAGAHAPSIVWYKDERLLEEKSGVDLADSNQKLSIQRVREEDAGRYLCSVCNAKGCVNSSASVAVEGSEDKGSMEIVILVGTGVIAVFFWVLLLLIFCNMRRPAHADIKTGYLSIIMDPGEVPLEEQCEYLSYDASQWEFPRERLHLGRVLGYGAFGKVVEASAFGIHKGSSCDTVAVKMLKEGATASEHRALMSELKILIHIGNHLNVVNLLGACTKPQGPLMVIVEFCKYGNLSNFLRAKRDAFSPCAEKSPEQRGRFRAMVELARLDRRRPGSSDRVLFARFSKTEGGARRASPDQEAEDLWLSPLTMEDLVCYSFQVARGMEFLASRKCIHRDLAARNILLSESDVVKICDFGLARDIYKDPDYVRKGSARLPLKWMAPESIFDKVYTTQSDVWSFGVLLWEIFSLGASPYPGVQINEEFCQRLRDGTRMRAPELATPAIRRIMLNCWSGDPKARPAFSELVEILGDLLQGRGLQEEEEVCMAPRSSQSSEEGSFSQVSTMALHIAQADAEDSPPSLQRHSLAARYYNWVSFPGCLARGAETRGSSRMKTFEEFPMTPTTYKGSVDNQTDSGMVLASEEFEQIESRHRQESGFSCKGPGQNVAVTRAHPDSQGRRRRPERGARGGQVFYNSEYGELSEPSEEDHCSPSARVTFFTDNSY
Sequence of HUNK (P57058 whole entry): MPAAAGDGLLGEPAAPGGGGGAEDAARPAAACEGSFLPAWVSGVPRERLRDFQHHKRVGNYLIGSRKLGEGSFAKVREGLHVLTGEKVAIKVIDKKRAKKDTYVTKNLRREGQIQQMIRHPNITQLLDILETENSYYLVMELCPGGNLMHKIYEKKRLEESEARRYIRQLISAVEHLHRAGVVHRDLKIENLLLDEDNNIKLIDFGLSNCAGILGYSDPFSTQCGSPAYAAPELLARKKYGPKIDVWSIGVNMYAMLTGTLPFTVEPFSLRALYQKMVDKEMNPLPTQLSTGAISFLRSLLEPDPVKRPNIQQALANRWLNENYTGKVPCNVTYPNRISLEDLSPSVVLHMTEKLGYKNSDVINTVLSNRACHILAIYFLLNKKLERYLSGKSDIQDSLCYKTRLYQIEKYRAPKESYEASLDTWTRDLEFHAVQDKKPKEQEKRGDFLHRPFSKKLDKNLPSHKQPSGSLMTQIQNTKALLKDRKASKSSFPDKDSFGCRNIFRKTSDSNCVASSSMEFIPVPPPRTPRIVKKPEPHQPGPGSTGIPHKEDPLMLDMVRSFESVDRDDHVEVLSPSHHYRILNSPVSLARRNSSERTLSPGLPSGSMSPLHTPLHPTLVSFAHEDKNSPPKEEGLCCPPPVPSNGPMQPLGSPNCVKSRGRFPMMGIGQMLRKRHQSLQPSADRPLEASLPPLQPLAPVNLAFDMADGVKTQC
Sequence of ACVR1B (P36896 whole entry): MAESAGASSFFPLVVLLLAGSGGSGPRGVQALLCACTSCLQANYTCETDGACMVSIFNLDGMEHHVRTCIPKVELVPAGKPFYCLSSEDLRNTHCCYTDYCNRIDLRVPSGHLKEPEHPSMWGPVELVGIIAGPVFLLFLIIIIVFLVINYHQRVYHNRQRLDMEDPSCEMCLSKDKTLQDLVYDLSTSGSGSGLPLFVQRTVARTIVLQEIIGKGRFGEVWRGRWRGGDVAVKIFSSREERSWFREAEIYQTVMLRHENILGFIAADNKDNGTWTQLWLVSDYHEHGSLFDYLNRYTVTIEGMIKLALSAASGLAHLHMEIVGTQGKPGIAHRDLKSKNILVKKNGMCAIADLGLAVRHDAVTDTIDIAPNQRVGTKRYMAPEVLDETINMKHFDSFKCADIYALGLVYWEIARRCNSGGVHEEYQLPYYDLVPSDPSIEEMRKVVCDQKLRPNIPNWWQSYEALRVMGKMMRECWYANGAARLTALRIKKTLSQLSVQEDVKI

Question: What does the source list for `CNc1ncc2cc(-c3ccc(-c4cccc(C)n4)cc3Cl)c(=O)n(C[C@H]3OC[C@H](N)CO3)c2n1` [compound 6, G-5555]?
Answer: Percent Control (PHKG1): 100%; Percent Control (FLT4): 100%; Percent Control (ABL1-phosphorylated): 95%; Percent Control (MLK2): 88%; Percent Control (FLT3(R834Q)): 100%; Percent Control (ACVR1B): 96%; Percent Control (CLK3): 100%; Percent Control (HUNK): 100%; Percent Control (HASPIN): 100%; Percent Control (EPHA5): 100%; Percent Control (PKAC-alpha): 100%; Percent Control (CAMK1): 59%; Percent Control (CSNK1G3): 100%; Percent Control (MKNK1): 100%; Percent Control (INSR): 97%; Percent Control (KIT(V559D,V654A)): 100%; Percent Control (DAPK3): 100%; Percent Control (p38-gamma): 100%; Percent Control (p38-beta): 100%; Percent Control (ADCK4): 100%; Percent Control (MYO3B): 57%; Percent Control (EPHA2): 100%; Percent Control (VRK2): 100%; Percent Control (PIK3CA(Q546K)): 100%; Percent Control (TYRO3): 92%; Percent Control (KIT(D816V)): 100%; Percent Control (EPHB2): 79%; Percent Control (MET(M1250T)): 45%; Percent Control (MRCKA): 70%; Percent Control (LZK): 100%

Reference: paper doi:10.1101/2021.04.08.439011v1 (biorxiv, 2021)
